What follows are compounds tested against T1, SARM1 (50-724) (Homo sapiens, UniProt Q6SZW1) (assay: SARM1 (50-724) enzymatic assay (LC-MS/MS)). Conditions: Purified SARM1 (50-724) 2 nM, NMN as activator, NAD+ as substrate, 1 h at room temperature, read-out: IC50 (SARM1 inhibitory activity).
T1 construct: Purified SARM1 (50-724) with a final concentration of 2 nM was pre-incubated with a test compound
T1 sequence (Q6SZW1 50-724): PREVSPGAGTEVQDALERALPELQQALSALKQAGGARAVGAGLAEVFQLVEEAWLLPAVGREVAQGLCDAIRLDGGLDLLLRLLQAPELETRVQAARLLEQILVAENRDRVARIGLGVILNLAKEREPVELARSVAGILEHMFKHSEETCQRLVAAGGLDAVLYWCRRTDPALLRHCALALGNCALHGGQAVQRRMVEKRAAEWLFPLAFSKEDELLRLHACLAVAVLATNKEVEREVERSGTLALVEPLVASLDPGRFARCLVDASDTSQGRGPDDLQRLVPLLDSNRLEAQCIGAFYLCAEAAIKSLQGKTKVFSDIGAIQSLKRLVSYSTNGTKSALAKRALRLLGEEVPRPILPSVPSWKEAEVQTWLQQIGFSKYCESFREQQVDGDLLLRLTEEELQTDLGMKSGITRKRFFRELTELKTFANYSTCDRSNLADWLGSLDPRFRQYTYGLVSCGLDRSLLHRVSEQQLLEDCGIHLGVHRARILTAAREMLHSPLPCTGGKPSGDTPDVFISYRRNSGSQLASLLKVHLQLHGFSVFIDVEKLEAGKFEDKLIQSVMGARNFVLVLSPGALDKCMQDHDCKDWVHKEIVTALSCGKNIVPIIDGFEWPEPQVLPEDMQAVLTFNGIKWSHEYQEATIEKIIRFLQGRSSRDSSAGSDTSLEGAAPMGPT
Format: biochemical
Experimental: An enzymatic assay was performed in a 384-well plate using Dulbecco's phosphate-buffered saline (PBS) as the reaction buffer. Purified SARM1 (50-724) with a final concentration of 2 nM was pre-incubated with a test compound at […] final assay concentration for 15 min at room temperature. The reaction was initiated by adding a mixture of […] nicotinamide mononucleotide (NMN) as activator and […] NAD^+ as substrate. After 1 h of incubation at room temperature, the reaction was terminated with 10 times volume of 70% acetonitrile, and then centrifuged at 3800 rpm for 10 min. The samples were analyzed using LC-MS/MS after diluted to a proper concentration by 10 mM ammonium acetate (pH 9.75).
In Table 2, activity is provided as follows: A: IC50≤100 nM; B: 100 nM<IC50≤500 nM; C: 500 nM<IC50≤1000 nM; D: IC50>1000 nM.

`FC(F)(F)Oc1cnc(CC2COC2)cc1-n1cnnc1-c1nc2cc(C(F)(F)F)ccc2[nH]1` [Compound 262, 2-(4-(2-(oxetan-3-ylmethyl)-5-(trifluoromethoxy)pyridin-4-yl)-4H-1,2,4-triazol-3-yl)-5-(trifluoromethyl)-1H-benzo[d]imidazole] was tested. Which IC50 did it give?
Its IC50 is no more than 100 nM.

For `FC(F)(F)Oc1cnccc1-n1cnnc1-c1nc2cc(C(F)(F)F)cc(Cl)c2[nH]1` [Compound 227, 7-chloro-2-(4-(3-(trifluoromethoxy)pyridin-4-yl)-4H-1,2,4-triazol-3-yl)-5-(trifluoromethyl)-1H-benzo[d]imidazole], which IC50 is on record?
Its IC50 is no more than 100 nM.

How did the IC50 turn out when `Fc1cccc(-n2c(Cn3ccnn3)nnc2-c2nc3cc(C(F)(F)F)ccc3[nH]2)c1Cl` [Compound 383, 2-(5-((1H-1,2,3-triazol-1-yl)methyl)-4-(2-chloro-3-fluorophenyl)-4H-1,2,4-triazol-3-yl)-5-(trifluoromethyl)-1H-benzo[d]imidazole] was run?
Its IC50 is no more than 100 nM.

`FC(F)C1(c2ccc3[nH]c(-c4nncn4-c4ccncc4OC(F)(F)F)nc3c2)CC1` [Compound 237] was tested. Which IC50 did it give?
The IC50 was no more than 100 nM.

`Fc1c(C2CC(F)(F)C2)ccc2[nH]c(-c3nncn3-c3cnccc3C(F)(F)F)nc12` [Compound 314, 5-(3,3-difluorocyclobutyl)-4-fluoro-2-(4-(4-(trifluoromethyl)pyridin-3-yl)-4H-1,2,4-triazol-3-yl)-1H-benzo[d]imidazole] was tested. Which IC50 did it give?
Its IC50 is no more than 100 nM.

`Fc1cc(C2CC2C(F)F)cc2nc(-c3nncn3-c3cnccc3C(F)(F)F)[nH]c12` (stereo not shown) [Compound 339, 5-(2-(difluoromethyl)cyclopropyl)-7-fluoro-2-(4-(4-(trifluoromethyl)pyridin-3-yl)-4H-1,2,4-triazol-3-yl)-1H-benzo[d]imidazole] was tested. Which IC50 did it give?
The IC50 was no more than 100 nM.

With `FC(F)(F)c1ccncc1-n1cnnc1-c1nc2c(N3CC4(COC4)C3)c(Cl)ccc2[nH]1` [Compound 357, 6-(5-chloro-2-(4-(4-(trifluoromethyl)pyridin-3-yl)-4H-1,2,4-triazol-3-yl)-1H-benzo[d]imidazol-4-yl)-2-oxa-6-azaspiro[3.3]heptane] as the compound, how does the IC50 read?
The IC50 was greater than 1000 nM.

How did the IC50 turn out when `Cc1cnc2[nH]c(-c3nncn3-c3cccc(F)c3Cl)nc2n1` [Compound 176, 2-(4-(2-chloro-3-fluorophenyl)-4H-1,2,4-triazol-3-yl)-6-methyl-1H-imidazo[4,5-b]pyrazine] was run?
Its IC50 is greater than 1000 nM.

`CC(c1cc(F)c2[nH]c(-c3nncn3-c3cnccc3C(F)(F)F)nc2c1)c1cc[nH]n1` (stereo not shown) [Compound 430, 5-(1-(1H-pyrazol-5-yl)ethyl)-7-fluoro-2-(4-(4-(trifluoromethyl)pyridin-3-yl)-4H-1,2,4-triazol-3-yl)-1H-benzo[d]imidazole] was tested. Which IC50 did it give?
The IC50 was no more than 100 nM.

How did the IC50 turn out when `Fc1cc(N2CCC(F)(F)C2)cc2nc(-c3nncn3-c3cnccc3C(F)(F)F)[nH]c12` [Compound 326, 5-(3,3-difluoropyrrolidin-1-yl)-7-fluoro-2-(4-(4-(trifluoromethyl)pyridin-3-yl)-4H-1,2,4-triazol-3-yl)-1H-benzo[d]imidazole] was run?
Its IC50 is 100 to 500 nM.

How did the IC50 turn out when `CS(=O)(=O)Cc1nnc(-c2nc3c(F)c(C(F)(F)F)ccc3[nH]2)n1-c1cccc(F)c1Cl` (racemic) [Compound 195, 2-(4-(2-chloro-3-fluorophenyl)-5-((methylsulfonyl)methyl)-4H-1,2,4-triazol-3-yl)-4-fluoro-5-(trifluoromethyl)-1H-benzo[d]imidazole] was run?
Its IC50 is no more than 100 nM.

How did the IC50 turn out when `NC(=O)c1cc(Cl)c(Cl)c(-n2cnnc2-c2nc3cc(C(F)(F)F)ccc3[nH]2)c1` [Compound 174, 3,4-dichloro-5-(3-(5-(trifluoromethyl)-1H-benzo[d]imidazol-2-yl)-4H-1,2,4-triazol-4-yl)benzamide] was run?
The IC50 was no more than 100 nM.

`Fc1cc2[nH]c(-c3nncn3-c3cnccc3C(F)(F)F)nc2c(F)c1C1CC1` [Compound 332, 5-cyclopropyl-4,6-difluoro-2-(4-(4-(trifluoromethyl)pyridin-3-yl)-4H-1,2,4-triazol-3-yl)-1H-benzo[d]imidazole] was tested. Which IC50 did it give?
The IC50 was no more than 100 nM.

Which IC50 does the source give for `Fc1ccc(-n2cnnc2-c2nc3cc(C(F)(F)F)ccc3[nH]2)c(Cl)c1F` [Example 120] here?
The IC50 was no more than 100 nM.

With `OCc1cccc(OC(F)(F)F)c1-n1cnnc1-c1nc2cc(C(F)(F)F)ccc2[nH]1` [Compound 261, (3-(trifluoromethoxy)-2-(3-(5-(trifluoromethyl)-1H-benzo[d]imidazol-2-yl)-4H-1,2,4-triazol-4-yl)phenyl)methanol] as the compound, how does the IC50 read?
Its IC50 is no more than 100 nM.

With `Fc1cc([C@@H]2[C@@H]3COC[C@@H]32)cc2nc(-c3nncn3-c3cnccc3C(F)(F)F)[nH]c12` (single isomer, unassigned) [Compound 349, 7-fluoro-5-(3-oxabicyclo[3.1.0]hexan-6-yl)-2-[4-[4-(trifluoromethyl)-3-pyridyl]-1,2,4-triazol-3-yl]-1H-benzimidazole] as the compound, how does the IC50 read?
The IC50 was no more than 100 nM.

With `CS(=O)(=O)Cc1nnc(-c2cc3cc(C(F)(F)F)ccc3[nH]2)n1-c1cnccc1C(F)(F)F` [Compound 380, 2-(5-((methylsulfonyl)methyl)-4-(4-(trifluoromethyl)pyridin-3-yl)-4H-1,2,4-triazol-3-yl)-5-(trifluoromethyl)-1H-indole] as the compound, how does the IC50 read?
Its IC50 is no more than 100 nM.

For `OCCOc1ccc(OC(F)(F)F)c(-n2cnnc2-c2nc3cc(C(F)(F)F)ccc3[nH]2)n1` [Compound 250], which IC50 is on record?
The IC50 was no more than 100 nM.

`FC(F)(F)c1ccc2[nH]c(-c3nnc(COC4COC4)n3-c3cccc(Cl)c3Cl)nc2c1` [Example 124] was tested. Which IC50 did it give?
Its IC50 is no more than 100 nM.

With `CSc1nnc(-c2nc3cc(C(F)(F)F)ccc3[nH]2)n1-c1cccc(Cl)c1Cl` [Compound 116] as the compound, how does the IC50 read?
The IC50 was 100 to 500 nM.

`CNC(=O)c1cc(F)c(Cl)c(-n2cnnc2-c2nc3cc(C(F)(F)F)cc(F)c3[nH]2)c1` [Compound 205, 4-chloro-3-fluoro-5-(3-(7-fluoro-5-(trifluoromethyl)-1H-benzo[d]imidazol-2-yl)-4H-1,2,4-triazol-4-yl)-N-methylbenzamide] was tested. Which IC50 did it give?
Its IC50 is no more than 100 nM.

With `COC(C)c1ccc2[nH]c(-c3nncn3-c3ccc(F)c(F)c3Cl)nc2c1` (stereo not shown) [Compound 155, 2-(4-(2-chloro-3,4-difluorophenyl)-4H-1,2,4-triazol-3-yl)-5-(1-methoxyethyl)-1H-benzo[d]imidazole] as the compound, how does the IC50 read?
The IC50 was no more than 100 nM.

With `CC(C)(O)COc1ccc(OC(F)(F)F)c(-n2cnnc2-c2nc3cc(C(F)(F)F)ccc3[nH]2)n1` [Compound 255, 2-methyl-1-((5-(trifluoromethoxy)-6-(3-(5-(trifluoromethyl)-1 H-benzo[d]imidazol-2-yl)-4H-1,2,4-triazol-4-yl)pyridin-2-yl)oxy)propan-2-ol] as the compound, how does the IC50 read?
The IC50 was no more than 100 nM.

With `FC(F)(F)c1ccc2[nH]c(-c3nncn3-c3cnccc3C(F)(F)F)cc2c1` [Compound 258, 5-(trifluoromethyl)-2-(4-(4-(trifluoromethyl)pyridin-3-yl)-4H-1,2,4-triazol-3-yl)-1H-indole] as the compound, how does the IC50 read?
Its IC50 is no more than 100 nM.

For `FC(F)(F)c1ccc2[nH]c(-c3scnc3-c3cccc(Cl)c3Cl)nc2c1` [Example 42], which IC50 is on record?
The IC50 was 500 to 1000 nM.

How did the IC50 turn out when `N#CC1(c2ccc3[nH]c(-c4nncn4-c4cccc(F)c4Cl)nc3c2)COC1` [Compound 180, 3-(2-(4-(2-chloro-3-fluorophenyl)-4H-1,2,4-triazol-3-yl)-1H-benzo[d]imidazol-5-yl)oxetane-3-carbonitrile] was run?
The IC50 was no more than 100 nM.

With `FC(F)(F)c1ccc2[nH]c(-c3cncnc3-c3cccc(Cl)c3Cl)nc2c1` [Example 38] as the compound, how does the IC50 read?
The IC50 was 100 to 500 nM.

For `FC(F)(F)c1ccc2[nH]c(-c3nnc(S)n3-c3cccc(Cl)c3Cl)nc2c1` [Example 108, 4-(2,3-dichlorophenyl)-5-(5-(trifluoromethyl)-1H-benzo[d]imidazol-2-yl)-4H-1,2,4-triazole-3-thiol], which IC50 is on record?
The IC50 was 100 to 500 nM.

`CN(CC(F)F)c1cc(F)c2[nH]c(-c3nncn3-c3cnccc3C(F)(F)F)nc2c1` [Compound 318, N-(2,2-difluoroethyl)-7-fluoro-N-methyl-2-(4-(4-(trifluoromethyl)pyridin-3-yl)-4H-1,2,4-triazol-3-yl)-1H-benzo[d]imidazol-5-amine] was tested. Which IC50 did it give?
Its IC50 is no more than 100 nM.

`Cn1cc(OC(F)(F)F)c(-n2cnnc2-c2nc3cc(C(F)(F)F)ccc3[nH]2)cc1=S` [Compound 242, 1-methyl-5-(trifluoromethoxy)-4-(3-(5-(trifluoromethyl)-1H-benzo[d]imidazol-2-yl)-4H-1,2,4-triazol-4-yl)pyridine-2(1H)-thione] was tested. Which IC50 did it give?
Its IC50 is no more than 100 nM.

`Oc1cc(F)c(Cl)c(-n2cnnc2-c2nc3cc(C(F)(F)F)ccc3[nH]2)c1` [Compound 207, 4-chloro-3-fluoro-5-(3-(5-(trifluoromethyl)-1H-benzo[d]imidazol-2-yl)-4H-1,2,4-triazol-4-yl)phenol] was tested. Which IC50 did it give?
The IC50 was no more than 100 nM.

Source: patent publication US20260258064A1 (SIRONAX LTD., priority 2023, published 2026)
